Measured values published in patent US8163870B2, “Channel forming peptides” (Kansas State University Research Foundation, priority 2000, dated 2012).
Values joined by “and” are separate entries in the source; they are usually repeats but may differ in a detail not shown here. Equal values may be shown once. Read-outs that look alike come from different tables or passages of the source. Non-standard residues stand in square brackets, D forms with d. No end group written: not given here.

Assays:
MDCK monolayers = experiment: Transepithelial electrical resistance (RTE) / conductance (gTE) across MDCK monolayers; format: cell-based, canine; conditions: for effect on transepithelial electrical resistance: upon onset of channel activity
Procedure: (§1) Transepithelial ion transport was evaluated in a modified Ussing chamber (Model DCV9, Navicyte, San Diego, Calif.). The Ussing chamber's fluid resistance compensation was completed in Ringer solution (composition (in mM) was 120 NaCl, 25 NaHCO3 3.3 KH2HPO4, 0.8 K2HPO4, 1.2 MgCl2, 1.2 CaCl2). For electrical measurements cell monolayers were bathed in Ringer solution maintained at 37° C. and continuously bubbled with 5% CO2:95% O2. The transepithelial membrane potential (Vte) was clamped to zero and the transepithelial short circuit current (Isc), an indicator of net ion transport, was measured continuously with a voltage clamp apparatus (Model 558C, University of Iowa, Department of Bioengineering, Iowa City, Iowa). Data were digitally acquired at 1 Hz with a Macintosh computer (Apple Computer, Cuppertino, Calif.) using Aqknowledge software (ver. 3.2.6, BIOPAC Systems, Santa Barbara, Calif.) with an MP100A-CE interface.
MDCK cell monolayers (in the presence of 1-EBIO to maximize basolateral membrane K^+ conductance) were exposed on the apical aspect to various concentrations of selected peptides as indicated.
In this experiment, the MDCK monolayers were initially incubated with 60 μM of SEQ ID No. 27. When the residual resistance reached approximately 10% of the starting value, the peptide was removed by aspiration and followed by the addition of pre-warmed Ringer solution. This solution was subsequently removed and replaced an additional five times over the next 2 minutes. In this figure, the solid central line represents the measured current at zero mV and the vertical deflections represent the current recorded during periodic 1 mV bipolar pulses. Pulse amplitude is inversely proportional to RTE in accordance with Ohm's law.
Additional experiments have been conducted to test for complete reversibility of peptide-induced changes in RTE. Monolayers were exposed to peptide (60 μM) in an Ussing chamber for ˜20 minutes to document decreases in RTE, recovered and returned to the cell culture incubator for two to five days with the apical and basolateral media refreshed daily before subsequent assessment of basal RTE and responsiveness to peptide. In the previous example, the return of RTE was only followed for hours. In this example, the restoration of RTE was measured over days to determine the minimum time require for full recovery.
Electrical measurements. Transepithelial ion transport was evaluated in modified Ussing chambers (Model DCV9; Navicyte, San Diego, Calif.). For typical electrical measurements of ion flux, cells were bathed in symmetrical Ringer solution (composition in mM: 120 NaCl, 25 NaHCO3, 3.3 KH2HPO4, 0.8 K2HPO4, 1.2 MgCl2, 1.2 CaCl 2; 290±2 mOsmol). The diffusion chambers were maintained at 37° C. and continuously bubbled with 5% CO2/95% O2 to maintain pH, provide aeration and mix the fluid in the chambers. The transepithelial potential (VTE) was clamped to zero, and ISC measured continuously with a voltage-clamp apparatus (Model 558C, University of Iowa, Department of Bioengineering, Iowa City, Iowa). Data were acquired at 1 Hz with a Macintosh computer (Apple Computer, Cuppertino, Calif.) using Aqknowledge software (ver. 3.2.6; BIOPAC Systems, Santa Barbara, Calif.) with an MP100A-CE interface. gTE was determined by exposing the epithelia to a 5 second 1 mV bipolar pulse at 100 second intervals. The recorded current deflections were used with Ohms law to calculate gTE: […]

MDCK cells = format: cell-based, canine
Source text: Cell culture: MDCK cells were a generous gift of Dr. Lawrence Sullivan (Kansas University Medical Center, Kansas City, Kans.). T84 cells were obtained from Dr. Daniel Devor (University of Pittsburgh, Pittsburgh, Pa.). MDCK and T84 cells were maintained with similar culture procedures. The culture medium was a 1:1 mixture of DMEM and Ham's F-12 (Gibco BRL, Grand Island, N.Y.) supplemented with 5% heat inactivated fetal bovine serum (BioWhittaker, Walkersville, Md.), and 1% penicillin and streptomycin (Gibco BRL). Cells were grown in plastic culture flasks in a humidified environment with 5% CO2 at 37° C. and passaged every 5-7 days. For Ussing chamber experiments, cells were plated on 1.13 cm^2 permeable supports (Snapwell™, Costar®, Cambridge, Mass.) at a density of approximately 1×10^6 cells/well and incubated in DMEM/F-12 supplemented with FBS and antibiotics (changed every other day) for 2-3 weeks prior to being mounted in modified Ussing flux chambers.
To form monolayers, the cells were plated onto the upper surface of a permeable membrane that forms the bottom of a plastic well. Two types were used. One was the Transwell™ insert (Costar®, Cambridge, Mass.) supported in a six-well tissue culture plate and the other type was the Snapwell™ (Costar®, Cambridge, Mass.). During incubation, the medium was replaced at 48-72 hour intervals. Confluent monolayers formed within 72 hours. Experiments were performed on the monolayers 6-9 days after the initial plating. Net fluid secretion responses were optimal after six days.
Solutions: Ringer solution was made fresh daily. The final concentration (in mM) was 120 NaCl, 25 NaHCO3 3.3 KH2HPO4, 0.8 K2HPO4, 1.2 MgCl2, 1.2 CaCl2, (290±2 mOsmol). All components of the Ringer solution were from Sigma (St. Louis, Mo.).
as §1, with “Epithelial electrical measurements: Transepithelial” for “Transepithelial”, “(see below).” for “(composition (in mM) was 120 NaCl, 25 NaHCO3 3.3 KH2HPO4, 0.8 K2HPO4, 1.2 MgCl2, 1.2 CaCl2).”
as §1
MDCK cell monolayers (in the presence of 1-EBIO to maximize basolateral membrane K^+ conductance) were exposed on the apical aspect to escelating peptide concentrations. Maximal change in Isc (relative to the Isc prior to peptide exposure) was recorded following each increment in apical peptide concentration. […]

[1] = Circular dichroism in 20% TFE; format: physicochemical; conditions: water containing 20% TFE
Procedure: Circular dichroism: Circular dichroism spectra were recorded on a Jasco Model J-720 spectropolarimeter in the range 180-250 nm using quartz cuvettes with a 0.2 mm pathlength. Eight scans recorded at a rate of 20 nm/minute were averaged and corrected for contributions of buffer (10 mM HEPES, pH 7.2). […] The molar ellipticity was calculated using d-10-camphorsulfonic acid (290.5=7783° cm2 dmol 1) as a reference (Chen, G. C., and J. T. Yang. 1977. Two point calibration of spectropolarimeter with d-10-camphorsulfonic acid. Anal. Lett. 10:1195-1207.). The line shapes of the spectra were analyzed using a least-square fitting routine by comparison to polylysine standards representing 100%-helix, -turn, or random coil, respectively.

[2] = molecular target: T1, tetrameric channel (four-helix bundle M2GlyR) (Homo sapiens, UniProt P23415); conditions: cited from earlier work
T1 construct: four identical M2GlyR peptide units were tethered to a 9-amino acid carrier template to form a four-helix bundle protein; 9-amino acid carrier template (tethers four peptide units); host or cells: synthetic peptide construct reconstituted in lipid bilayers

[3] = Chemical cross-linking (BS3) and SDS-PAGE, oligomeric state of peptide in solution; format: physicochemical; conditions: SDS-PAGE
Procedure: Chemical cross-linking: In order to visualize the oligomeric state of the peptide in solution a chemical cross-linking protocol was developed. Calculated amounts of each peptide were weighted out and dissolved in 1 mL of distilled water to make 1 mM stock solutions. A 100 mM stock solution of the chemical crosslinking reagent Bis[Sulfosuccinimidyl]suberate, BS^3, (Pierce Chemical Co., Rockford, Ill.) was prepared in dimethyl sulfoxide (DMSO). […] Sample were allowed to sit at room temperature for 15 minutes. 1-6 μL of 100 mM BS^3 was then added to the previously prepared peptide such that the crosslinking reagent was present in 20-fold excess. The final volume for each reaction was 100 μL. […] Each sample was then vacuum dried. Later dry samples were re-dissolved in 60 μL of distilled water along with 60 μL of a 2×-tricine SDS sample buffer (Novex, San Diego). All samples were then boiled at 100° C. for 5 minutes. 5 μL aliquots of each SDS boiled sample was then loaded into separate lanes of pre-cast, 1.0 mm, 10 well, 10-20% tricine gels (Novex, San Diego). Pre-made Novex tricine-SDS buffer was used in the electrophoresis. The reference well contained 1 μL of MultiMark® multi-colored molecular weight standard (Novex, San Diego). The electrophoresis was carried out at a constant 110 Volts for 90 minutes. […]

[4] = cited from earlier work

KKKKPARVGLGITTVLTMTTRW (Modified Homo sapiens) [SEQ ID No. 55]
decrease in RTE (MDCK monolayers; 100 μM): ~70%
decrease in RTE (MDCK monolayers; 200 μM): ~90%
effect on transepithelial electrical resistance (MDCK monolayers): dramatic decrease in transepithelial electrical resistance

KKKKPARVGLGITTVLVTTIGLGVRAA (KKKKPARVGLGITTVLVTTIGLGVRAA; Modified Homo sapiens) [SEQ ID No. 26]
effect on transepithelial electrical resistance (MDCK monolayers): dramatic decrease in transepithelial electrical resistance
peptide concentration producing maximal effect on Isc (Imax) (MDCK cells; MDCK monolayers): 100 µM
Activity profile in MDCK cells (MDCK cells; peptide at 100 μM): 25.7 at 100 μM μA/cm2
secondary structure by CD [1]: helical structure

KKKKPARVGLGITTVLTMTTQW (Modified Homo sapiens) [SEQ ID No. 54]
effect on transepithelial electrical resistance (MDCK monolayers): dramatic decrease in transepithelial electrical resistance

O=C(O)c1c2ccccc2cc2ccccc12 [9-AC, 9-anthracene carboxylic acid]
block of the tetrameric channel [2]: blocked

all-D amino acid form of SEQ ID NO. 27: all-D amino acid form of SEQ ID NO. 27 ([dK][dK][dK][dK][dA][dA][dR][dV]G[dL]G[dI][dT][dT][dV][dL][dV][dT][dT][dI]G[dL]G[dV][dR][dA][dA])
concentration triggering conductance increases (MDCK monolayers): 40 µM

O=C(O)c1cccnc1Nc1cccc(C(F)(F)F)c1 [NFA, niflumic acid]
block of the tetrameric channel [2]: blocked

PARVGLGITTVLVTTIGLGVRAPKKKK [SEQ ID No. 19, PARVGLGITT VLVTTIGLGV RAPKKKK]
effect on isolated cells (isolated cells): cytotoxic effects

KKKKPARVGLGITTVLVTTIGLGVRAP [SEQ ID No. 18, KKKKPARVGL GITTVLVTTI GLGVRAP]
effect on isolated cells (isolated cells): not harmful to isolated cells
EC50 (MDCK cells; MDCK monolayers, modified Hill equation fit, read-out: half maximal effect on Isc (EC50 / K1/2)): 50 µM

KKKKVTTIGLGVRAPLVTTIGLGVRAA (KKKKVTTIGLGVRAPLVTTIGLGVRAA; Modified Homo sapiens) [SEQ ID No. 5]
Activity profile in MDCK cells (MDCK cells; peptide at 500 μM): <1.0 at 500 μM μA/cm2
secondary structure by CD [1]: beta-sheet

KKKKAARVGLGITTVWVTTIGLGVRAA (KKKKAARVGLGITTVWVTTIGLGVRAA; Modified Homo sapiens) [SEQ ID No. 9]
aggregation state in solution [3]: remained in monomer form
effect on transepithelial electrical resistance (MDCK monolayers): dramatic decrease in transepithelial electrical resistance
Activity profile in MDCK cells (MDCK cells; peptide at 100 μM): 20.0 μA/cm2
Activity profile in MDCK cells (MDCK cells; peptide at 100 μM, listed as 9): 20.0 at 100 μM μA/cm2

PARVGLGITTVLTMTTQSSGSRA (PARVGLGITTVLTMTTQSSGSRA; listed as Homo sapiens) [SEQ ID No. 1]
Activity profile in MDCK cells (MDCK cells; peptide at 500 μM): 1.5 at 500 μM μA/cm2
transference number for anions ([4]; 5-fold KCl concentration gradient): 0.85
single-channel conductance ([4]; symmetric 0.5 M KCl, listed as M2GlyR): 25 pS and 49 pS

Cc1cccc(C)c1NC(=O)C[N+](C)(C)C [QX-222]
block of the tetrameric channel [2]: not blocked
